Assay results taken from patent US8633161B2, “Therapeutic agents for the treatment of leukemia” (The Ohio State University Research Foundation, priority 2005, dated 2014).

Tests used:
BCR/ABL = assay: Western blot of BCR/ABL activity (phosphotyrosine) and expression; type: cell-based; settings: upon treatment with FTY720 2.5 μM
Method: Cells (10^7) were lysed in 100 μl of RIPA buffer (150 mM NaCl, 1% NP-40, 0.1% SDS, 50 mM Tris [pH 8.0]) supplemented with 1 mM PMSF, 25 μg/ml aprotinin, 10 μg/ml leupeptin, 100 μg/ml pepstatin A, 5 mM benzamidine, 1 mM Na3VO4, 50 mM NaF, 10 mM β-glycerol-phosphate. After incubation on ice (30 min), lysates were clarified (12,000×g, 15 min, 4° C.), denatured, and subjected to SDS-PAGE and Western blot (Iervolino et al., 2002). The antibodies used were goat polyclonal anti-SET(I2PP2A), -pp32(I1PP2A), and -hnRNP A1 and rabbit polyclonal anti-SHP-1 (Santa Cruz Biotechnology); monoclonal anti-Abl (Ab-3), -c-myc (Ab-2), -phosphotyrosine PY20 (Ab-4), and -pBAD^S112 (Ab-1) (EMD); monoclonal anti-hnRNP A1 (9H10) (G. Dreyfuss, University of Pennsylvania, Philadelphia, Pa.); monoclonal anti-GRB2 and -Rb (BD TransLab Inc.); monoclonal anti-HA (Covance); monoclonal anti-PP2Ac, clone 1D6 (Upstate Inc.); monoclonal anti-FLAG, clone M2 (Sigma); monoclonal anti-pERK^T202/Y204 and rabbit polyclonal anti-pAKT^T308, pSTAT5^Y694, -pJak2^Y1007/1008, -Jak2, -BAD, -Akt, and -ERK1/2 (Cell Signaling Technology Inc.); monoclonal anti-STATS (Invitrogen); rabbit monoclonal anti-pPP2A^Y307 (Epitomics); rabbit polyclonal anti-PR65/A (Calbiochem). IPs were carried out in 20 mM HEPES (pH 7.0), 150 mM NaCl, and 0.2% NP-40 supplemented with protease and phosphatase inhibitors. Lysates were precleared and immunoprecipitated with Ab-coated beads for 3 hr at 4° C. After washings, IPs were subjected to SDS-PAGE and Western blot.

Akt = assay: Western blot of phosphorylated and total Akt; type: cell-based; settings: FTY720-treated 32D-BCR/ABL cells
PP2A = target: T1, PP2A (Mus musculus, UniProt P63330); assay: PP2A IP phosphatase assay on lysates of treated cells; type: cell-based; settings: FTY720 2.5 μM, BCR/ABL-transformed cell lines
T1 construct: endogenous in cells; host or cells: 32Dc13, 32D-BCR/ABL, 32D-BCR/ABL-T315I, 32D-p210 Y253H, BaF3-p210 T315I, K562, primary CML-BC CD34+ and NBM CD34+ cells
Method: PP2A phosphatase assays were carried out using the PP2A IP phosphatase assay kit (Upstate). Briefly, protein lysates (50 μg) in 100 μl of 20 mM HEPES (pH 7.0)/100 mM NaCl, 5 μg of PP2Ac antibody (Upstate), and 25 μl of Protein A-agarose were added to 400 μl of 50 mM Tris (pH 7.0)/100 mM CaCl2, and IPs were carried out at 4° C. for 2 hr. IPs were washed and used in the phosphatase reaction according to the manufacturer's protocol. Specificity of the PP2A assay was assessed by titration with okadaic acid and by ascertaining the absence of PP1a in the PP2A immunoprecipitates (Figure S2A). As internal control, the amount of immunoprecipitated PP2A was also monitored by anti-PP2Ac Western blots (Figure S2B).

[1] = test system: primary CML-BC, p210-BCR/ABL and p190-BCR/ABL expressing cell lines; assay: FTY720 in vitro: proliferation, clonogenic potential and apoptosis of BCR/ABL-expressing cells; type: cell-based; settings: 2.5 μM FTY720, imatinib-sensitive and -resistant p210 and p190 cell lines
Description: We studied the in vitro effect of FTY720 and derivative compounds on proliferation rate, clonogenic potential, and apoptosis in imatinib-sensitive and -resistant p210-BCR/ABL-expressing cells and p190-BCR/ABL-expressing cells. We then investigated the in vivo antileukemic potential of FTY720 in a mouse-model of imatinib-resistant CML-BC,
(§1) We obtained FTY720 synthesized using previously published methods (see Budde, K., et al., First human trial of FTY720, a novel immunomodulator, in stable renal transplant patients. J Am Soc Nephrol, (2002) 13:1073-83). Cells in liquid culture and in methylcellulose colony assays were cultured in the presence of 2.5 μM FTY720. SCID mice were i.v. injected with 5×10^5 T315I BCR/ABL-transduced 32Dc13 cells and levels of BCR/ABL in the peripheral blood were assessed by nested reverse transcriptase PCR. Upon establishment of a leukemia-like disease, mice were i.p. injected daily with FTY720 (250 μg/mouse/day). The disease process was monitored weekly by nested reverse transcriptase PCR. Apoptosis was assessed by AnnexinV/PI staining on untreated vs. treated cells.

[2] = test system: untransduced 32Dc13 cells and primary normal bone marrow cells; assay: FTY720 on cells not expressing the oncogene; type: cell-based; settings: untransduced 32Dc13 cells and primary normal bone marrow cells from healthy donors; FTY720 2.5 μM
Method: as §1

[3] = test system: T315I BCR/ABL-transduced 32Dc13 cells; type: in vivo
Method: as §1

CCCCCCCCc1ccc(CCC(N)(CO)CO)cc1 [FTY720]
BCR/ABL activity (BCR/ABL): inactivated | Akt phosphorylation/activity (Akt): Dephosphorylation and inactivation | expression of PP2A protein levels (PP2A): without increased expression | PP2A activity (PP2A; prior to induction of apoptosis): induces | growth, apoptosis and clonogenic potential [1]: significant growth inhibition, apoptosis and impaired clonogenic potential | inhibitory effect on cells not expressing the oncogene [2]: no effect was detected | mice alive ([3]; FTY720 250 μg/mouse/day i.p., after 20 weeks of treatment): more than 50% | signs of toxicity ([3]; control group that received only the drug): no signs of toxicity
